Results taken from the NIST ThermoML archive (doi:10.1016/j.jct.2006.03.018).

Key:
[1] = 101 kPa, Liquid
[2] = refractive index (Na D-line) (dimensionless); conditions: 101.33 kPa, Liquid
[3] = xn = mol fraction of the nth substance listed; conditions: 101 kPa, Liquid
[4] = refractive index (Na D-line) (dimensionless); xn = mol fraction of the nth substance listed; conditions: 101 kPa, Liquid

CCCO [propan-1-ol]
Conditions	mass density, 298.15 K [kg/m3]	mass density, 303.15 K [kg/m3]	mass density, 308.15 K [kg/m3]	refractive index, 298.15 K	refractive index, 303.15 K	refractive index, 308.15 K	speed of sound, 298.15 K [m/s]	viscosity, 298.15 K [mPa·s]	viscosity, 303.15 K [mPa·s]	viscosity, 308.15 K [mPa·s]
[1]	799.96	795.93	791.86	–	–	–	1206	1.792	1.706	1.518
[2]	–	–	–	1.3826	1.3808	1.3782	–	–	–	–

CC(C)CCO [3-methylbutan-1-ol]
Conditions	mass density, 298.15 K [kg/m3]	mass density, 303.15 K [kg/m3]	mass density, 308.15 K [kg/m3]	refractive index, 298.15 K	refractive index, 303.15 K	speed of sound, 298.15 K [m/s]	viscosity, 298.15 K [mPa·s]	viscosity, 303.15 K [mPa·s]
[1]	807.2	803.45	791.86	–	–	1241	3.835	3.261
[2]	–	–	–	1.405	1.403	–	–	–

COc1ccccc1 [anisole]
Conditions	mass density, 298.15 K [kg/m3]	mass density, 303.15 K [kg/m3]	mass density, 308.15 K [kg/m3]	refractive index, 298.15 K	refractive index, 303.15 K	refractive index, 308.15 K	speed of sound, 298.15 K [m/s]	viscosity, 298.15 K [mPa·s]	viscosity, 303.15 K [mPa·s]	viscosity, 308.15 K [mPa·s]
[1]	989.15	984.45	979.73	–	–	–	1412	0.988	0.913	0.854
[2]	–	–	–	1.5137	1.5113	1.5088	–	–	–	–

CC(C)O [propan-2-ol]
Conditions	mass density, 298.15 K [kg/m3]	mass density, 303.15 K [kg/m3]	mass density, 308.15 K [kg/m3]	refractive index, 298.15 K	refractive index, 303.15 K	refractive index, 308.15 K	speed of sound, 298.15 K [m/s]	viscosity, 298.15 K [mPa·s]	viscosity, 303.15 K [mPa·s]	viscosity, 308.15 K [mPa·s]
[1]	781.36	777.09	772.75	–	–	–	1141	2.042	1.755	1.521
[2]	–	–	–	1.3745	1.3721	1.3702	–	–	–	–

CCCCCO [pentan-1-ol]
Conditions	mass density, 298.15 K [kg/m3]	mass density, 303.15 K [kg/m3]	mass density, 308.15 K [kg/m3]	refractive index, 298.15 K	refractive index, 303.15 K	refractive index, 308.15 K	speed of sound, 298.15 K [m/s]	viscosity, 298.15 K [mPa·s]	viscosity, 303.15 K [mPa·s]	viscosity, 308.15 K [mPa·s]
[1]	810.92	807.23	803.52	–	–	–	1286	3.403	2.959	2.581
[2]	–	–	–	1.4073	1.405	1.4032	–	–	–	–

CCO [ethanol]
Conditions	mass density, 298.15 K [kg/m3]	mass density, 303.15 K [kg/m3]	mass density, 308.15 K [kg/m3]	refractive index, 298.15 K	refractive index, 303.15 K	refractive index, 308.15 K	speed of sound, 298.15 K [m/s]	viscosity, 298.15 K [mPa·s]	viscosity, 303.15 K [mPa·s]	viscosity, 308.15 K [mPa·s]
[1]	785.91	781.6	777.26	–	–	–	1161	1.073	0.971	0.889
[2]	–	–	–	1.3591	1.3572	1.355	–	–	–	–

CCCCO [butan-1-ol]
Conditions	mass density, 298.15 K [kg/m3]	mass density, 303.15 K [kg/m3]	mass density, 308.15 K [kg/m3]	refractive index, 298.15 K	refractive index, 303.15 K	refractive index, 308.15 K	speed of sound, 298.15 K [m/s]	viscosity, 298.15 K [mPa·s]	viscosity, 303.15 K [mPa·s]	viscosity, 308.15 K [mPa·s]
[1]	806.12	802.28	798.41	–	–	–	1246	2.585	2.284	1.981
[2]	–	–	–	1.3968	1.3944	1.3923	–	–	–	–

COc1ccccc1 [anisole] + CC(C)O
Conditions	mass density, 298.15 K [kg/m3]	mass density, 303.15 K [kg/m3]	mass density, 308.15 K [kg/m3]	refractive index, 298.15 K	refractive index, 303.15 K	refractive index, 308.15 K	speed of sound, 298.15 K [m/s]	viscosity, 298.15 K [mPa·s]	viscosity, 303.15 K [mPa·s]	viscosity, 308.15 K [mPa·s]
[3], x1 = 0.0964	809.04	804.55	799.99	–	–	–	1168	1.526	1.335	1.178
[3], x1 = 0.1995	836.66	832.04	827.34	–	–	–	1195	1.236	1.101	0.988
[3], x1 = 0.2995	861.3	856.56	851.78	–	–	–	1223	1.111	1	0.906
[3], x1 = 0.3965	882.77	877.97	873.12	–	–	–	1250	1.019	0.923	0.838
[3], x1 = 0.4947	903.09	898.25	893.38	–	–	–	1277	0.959	0.872	0.798
[3], x1 = 0.5932	921.89	917.04	912.14	–	–	–	1304	0.942	0.864	0.792
[3], x1 = 0.6966	940.52	935.67	930.78	–	–	–	1331	0.91	0.837	0.775
[3], x1 = 0.8069	958.9	954.07	949.22	–	–	–	1358	0.879	0.81	0.742
[3], x1 = 0.9052	974.58	969.52	965.01	–	–	–	1384	0.847	0.783	0.72
[3], x1 = 1	989.15	984.45	979.73	–	–	–	1412	0.988	0.913	0.854
[4], x1 = 0.0964	–	–	–	1.3925	1.3901	1.3879	–	–	–	–
[4], x1 = 0.1995	–	–	–	1.4115	1.4075	1.4064	–	–	–	–
[4], x1 = 0.2995	–	–	–	1.4275	1.4244	1.4226	–	–	–	–
[4], x1 = 0.3965	–	–	–	1.4427	1.4399	1.438	–	–	–	–
[4], x1 = 0.4947	–	–	–	1.4571	1.4535	1.451	–	–	–	–
[4], x1 = 0.5932	–	–	–	1.4701	1.467	1.465	–	–	–	–
[4], x1 = 0.6966	–	–	–	1.482	1.4793	1.4763	–	–	–	–
[4], x1 = 0.8069	–	–	–	1.495	1.4923	1.4884	–	–	–	–
[4], x1 = 0.9052	–	–	–	1.5049	1.5018	1.4999	–	–	–	–
[4], x1 = 1	–	–	–	1.5137	1.5113	1.5088	–	–	–	–
